Reference: patent publication US20260215428A1, “WEED CONTROL METHOD” (SYNGENTA CROP PROTECTION AG, priority 2023, published 2026)

How the values were obtained:
Type in all cases: in vivo
Digitaria sanguinalis = assay: Glasshouse post-emergence test, visual damage, Table B1-4; settings: 14 days after application
Protocol: (§1) Seeds of a variety of test species are sown in standard soil in pots. For each treatment, three replicate pots containing 10-15 plants per one-inch pot were sprayed at the 2-3 leaf stage. Clethodim and Compound (Ic) were each applied at 15, 30, 60 and 120 g ai/ha. The test plants are then grown in a glasshouse under controlled conditions in a glasshouse (at 24/16° C., day/night; 14 hours light; 65% humidity) and watered twice daily. Plants were assessed for visual damage compared to the untreated control 14 days after application (0=0% damage; 100=100% damage).

Setaria viridis = assay: Glasshouse post-emergence test, visual damage, Table B1-5; settings: 14 days after application
Protocol: as §1

Volunteer corn = assay: 26 field trials, control of volunteer corn, Table B1-6
Eleusine indica = assay: Further glasshouse test versus other ACCase-inhibiting herbicides, Table B2-2; settings: 21 days after application
Text: (§2) Further tests were employed to test the efficacy of a compound of Formula I versus other ACCase-inhibiting herbicides. The five main targets were Lolium multiflorum, Eleusine indica, Digitaria insularis, Sorghum halepense and Echinochloa crus-galli. Collectively, the populations contained all the major target-site resistance mutations affecting ACCase herbicides. Two L. multiflorum (LM-NTSR-1 and LM-NTSR-2) and one E. crus-galli (ECG-NTSR-1) populations were characterised exclusively by non-target-site resistance (“NTSR”). The target-site resistant L. multiflorum and E. indication populations were 100% homozygous for different ACCase mutations whilst the D. insularis, S. halepense and E. crus-galli samples contained a mixture of homozygous wild and mutant individuals at different genotypic frequencies. Additional underlying NTSR cannot be ruled out in the populations characterised by target-site resistance.
(§3) Around 50 seeds of each of the 24 weed populations were sown in 12-cm pots containing a mixture of peat and compost in a 1:1 ratio. The pots were watered, fertilised and kept in controlled glasshouse conditions set at 24° C./16 hr day, 18° C. night, 65% relative humidity, and a photon flux density of approximately 250 μmol quanta m^−2 s^−1 for Lolium multiflorum. The E. indica, D. insularis, S. halepense and E. crus-galli plants were kept in a separate glasshouse bay characterised by a 17 H photoperiod of 180 μmol m^−2 s^−1 with temperatures of 25° C. day and 19° C. night and 65% relative humidity. When the plants were at the two to four-leaf stage, they were treated with the various ACCase-inhibiting herbicides at 0, 15, 30, 60, 120 and 240 g ai ha^−1 in a spray cabinet mounted with a single mobile Teejet flat fan nozzle (11002VS) calibrated to deliver 200 L ha^−1 at 200 kPa. The L. multiflorum populations were treated by a compound of Formula Ic, clodinafop-propargyl, pinoxaden, cycloxydim and clethodim and the warm season grass weeds E. indica, D. insularis, S. halepense and E. crus-galli were sprayed with a Compound Ic and the commonly employed haloxyfop-methyl and clethodim. Three replicate pots were used per population. Plants were assessed for visual damage compared to the untreated control 21 days after application (0=0% damage; 100=100% damage).

Sorghum halepense = assay: Further glasshouse test versus other ACCase-inhibiting herbicides, Table B2-4; settings: 21 days after application
Text: as §2, §3

Echinochloa Crus-galli = assay: Further glasshouse test versus other ACCase-inhibiting herbicides, Table B2-5; settings: 21 days after application
Text: as §2, §3

Compound `CC#Cc1ccc(C2=C(OC(=O)OC)C3CCC(C3)C2=O)c(OC)c1` (stereo not shown) [Compound Ic] has a visual damage (Digitaria sanguinalis; biotype I1781L (heterozygous), 15 g/ha) of 73%, a visual damage (Digitaria sanguinalis; biotype I1781L (heterozygous), 30 g/ha) of 90% and a visual damage (Digitaria sanguinalis; biotype I1781L (heterozygous), 60 g/ha) of 100%. The visual damage (Digitaria sanguinalis; biotype I1781L (heterozygous), 120 g/ha) was 100%, the visual damage (Digitaria sanguinalis; biotype Sensitive, 15 g/ha) was 90% and the visual damage (Digitaria sanguinalis; biotype Sensitive, 30 g/ha) was 100%. It also gave a visual damage (Digitaria sanguinalis; biotype Sensitive, 60 g/ha) of 100%, a visual damage (Digitaria sanguinalis; biotype Sensitive, 120 g/ha) of 100% and a visual damage (Setaria viridis; biotype GG2078 (homozygous), 15 g/ha) of 50%. For the same compound, the visual damage (Setaria viridis; biotype GG2078 (homozygous), 30 g/ha) was 73%, the visual damage (Setaria viridis; biotype GG2078 (homozygous), 60 g/ha) was 98% and the visual damage (Setaria viridis; biotype GG2078 (homozygous), 120 g/ha) was 98%. For the same compound, the visual damage (Setaria viridis; biotype II1781 (homozygous), 15 g/ha) was 70%, the visual damage (Setaria viridis; biotype II1781 (homozygous), 30 g/ha) was 90% and the visual damage (Setaria viridis; biotype II1781 (homozygous), 60 g/ha) was 98%. It also gave a visual damage (Setaria viridis; biotype II1781 (homozygous), 120 g/ha) of 100%, a visual damage (Setaria viridis; biotype LL1781 (homozygous), 15 g/ha) of 60% and a visual damage (Setaria viridis; biotype LL1781 (homozygous), 30 g/ha) of 90%. The visual damage (Setaria viridis; biotype LL1781 (homozygous), 60 g/ha) was 98%, the visual damage (Setaria viridis; biotype LL1781 (homozygous), 120 g/ha) was 100% and the visual damage (Setaria viridis; biotype Sensitive, 15 g/ha) was 87%. For the same compound, the visual damage (Setaria viridis; biotype Sensitive, 30 g/ha) was 93%, the visual damage (Setaria viridis; biotype Sensitive, 60 g/ha) was 100% and the visual damage (Setaria viridis; biotype Sensitive, 120 g/ha) was 100%. The Control (14d) (Volunteer corn; 25 g/ha) was 93%, the Control (28d) (Volunteer corn; 25 g/ha) was 99% and the Control (14d) (Volunteer corn; 50 g/ha) was 99%. For the same compound, the Control (28d) (Volunteer corn; 50 g/ha) was 100%, the Control (14d) (Volunteer corn; 100 g/ha) was 99% and the Control (28d) (Volunteer corn; 100 g/ha) was 100%. The Control (14d) (Volunteer corn; 200 g/ha) was 99%, the Control (28d) (Volunteer corn; 200 g/ha) was 100% and the visual damage (Eleusine indica; biotype D2078G, 15 g/ha) was 88%. It also gave a visual damage (Eleusine indica; biotype D2078G, 30 g/ha) of 100%, a visual damage (Eleusine indica; biotype D2078G, 60 g/ha) of 100% and a visual damage (Eleusine indica; biotype D2078G, 120 g/ha) of 100%. For the same compound, the visual damage (Eleusine indica; biotype D2078G, 240 g/ha) was 100%, the visual damage (Eleusine indica; biotype G2096A, 15 g/ha) was 93% and the visual damage (Eleusine indica; biotype G2096A, 30 g/ha) was 98%. It also gave a visual damage (Eleusine indica; biotype G2096A, 60 g/ha) of 100%, a visual damage (Eleusine indica; biotype G2096A, 120 g/ha) of 100% and a visual damage (Eleusine indica; biotype G2096A, 240 g/ha) of 100%. For the same compound, the visual damage (Eleusine indica; biotype I2041N, 15 g/ha) was 50%, the visual damage (Eleusine indica; biotype I2041N, 30 g/ha) was 98% and the visual damage (Eleusine indica; biotype I2041N, 60 g/ha) was 100%. It also gave a visual damage (Eleusine indica; biotype I2041N, 120 g/ha) of 100%, a visual damage (Eleusine indica; biotype I2041N, 240 g/ha) of 100% and a visual damage (Eleusine indica; biotype Sensitive, 15 g/ha) of 100%. The visual damage (Eleusine indica; biotype Sensitive, 30 g/ha) was 100%, the visual damage (Eleusine indica; biotype Sensitive, 60 g/ha) was 100% and the visual damage (Eleusine indica; biotype Sensitive, 120 g/ha) was 100%. It also gave a visual damage (Eleusine indica; biotype Sensitive, 240 g/ha) of 100%, a visual damage (Eleusine indica; biotype W2027C, 15 g/ha) of 100% and a visual damage (Eleusine indica; biotype W2027C, 30 g/ha) of 100%. For the same compound, the visual damage (Eleusine indica; biotype W2027C, 60 g/ha) was 100%, the visual damage (Eleusine indica; biotype W2027C, 120 g/ha) was 100% and the visual damage (Eleusine indica; biotype W2027C, 240 g/ha) was 100%. The visual damage (Sorghum halepense; biotype Sensitive, 15 g/ha) was 95%, the visual damage (Sorghum halepense; biotype Sensitive, 30 g/ha) was 97% and the visual damage (Sorghum halepense; biotype Sensitive, 60 g/ha) was 100%. It also gave a visual damage (Sorghum halepense; biotype Sensitive, 120 g/ha) of 100%, a visual damage (Sorghum halepense; biotype Sensitive, 240 g/ha) of 100% and a visual damage (Sorghum halepense; biotype W2027C, 15 g/ha) of 65%. For the same compound, the visual damage (Sorghum halepense; biotype W2027C, 30 g/ha) was 80%, the visual damage (Sorghum halepense; biotype W2027C, 60 g/ha) was 98% and the visual damage (Sorghum halepense; biotype W2027C, 120 g/ha) was 100%. The visual damage (Sorghum halepense; biotype W2027C, 240 g/ha) was 100%, the visual damage (Echinochloa Crus-galli; biotype Sensitive, 15 g/ha) was 100% and the visual damage (Echinochloa Crus-galli; biotype Sensitive, 30 g/ha) was 100%. It also gave a visual damage (Echinochloa Crus-galli; biotype Sensitive, 60 g/ha) of 100%, a visual damage (Echinochloa Crus-galli; biotype Sensitive, 120 g/ha) of 100% and a visual damage (Echinochloa Crus-galli; biotype Sensitive, 240 g/ha) of 100%. The visual damage (Echinochloa Crus-galli; biotype W2027C, 15 g/ha) was 100%, the visual damage (Echinochloa Crus-galli; biotype W2027C, 30 g/ha) was 100% and the visual damage (Echinochloa Crus-galli; biotype W2027C, 60 g/ha) was 100%. The visual damage (Echinochloa Crus-galli; biotype W2027C, 120 g/ha) was 100%, the visual damage (Echinochloa Crus-galli; biotype W2027C, 240 g/ha) was 100% and the visual damage (Echinochloa Crus-galli; population ECG-NTSR-1 (non-target-site resistance), 15 g/ha) was 90%. The visual damage (Echinochloa Crus-galli; population ECG-NTSR-1 (non-target-site resistance), 30 g/ha) was 100%, the visual damage (Echinochloa Crus-galli; population ECG-NTSR-1 (non-target-site resistance), 60 g/ha) was 100% and the visual damage (Echinochloa Crus-galli; population ECG-NTSR-1 (non-target-site resistance), 120 g/ha) was 100%. It also gave a visual damage (Echinochloa Crus-galli; population ECG-NTSR-1 (non-target-site resistance), 240 g/ha) of 100%.
